Values of other authors, collected in patent US20190054051A1, “DOPA Formulations for Treatments of Parkinson's Disease” (The Board of Trustees of the Leland Stanford Junior …, priority 2017, published 2019).

Tests used:
animal models of PD = details: previously reported; cited from earlier work
[1] = cited from earlier work

NC(N)=Nc1nc(CSCCC(N)=NS(N)(=O)=O)cs1 [famotidine]
L-DOPA induced dyskinesia (dyskinetic behavior following DOPA treatment) (animal models of PD): decreased the dyskinetic behavior

C[C@@](Cc1ccc(O)c(O)c1)(NN)C(=O)O [Carbidopa, N-amino-α-methyl-3-hydroxy-L-tyrosine monohydrate]
solubility in water [1]: slightly soluble in water
